In patent publication US20100204161A1, “Substances and Pharmaceutical Compositions for the Inhibition of Glyoxalases and Their Use Against Bacteria” (BIOMAC PRIVATINSTITUT FUR MEDIZINISHE UND ZAHMEDIZ …, priority 2005, published 2010):

What was measured:
[1] = target: T1, yeast glyoxalase I (Saccharomyces cerevisiae, UniProt P50107); test: Enzymatic activity of yeast glyoxalase I (formation of S-D-lactoyl-glutathione, 240 nm); format: biochemical; conditions: for Influence on the enzymatic activity of yeast glyoxalase I: increasing concentrations (0-30 mM in Example 5), FIG. 1-3
T1 construct: purchased Sigma G-4252
T1 sequence (P50107 1-326): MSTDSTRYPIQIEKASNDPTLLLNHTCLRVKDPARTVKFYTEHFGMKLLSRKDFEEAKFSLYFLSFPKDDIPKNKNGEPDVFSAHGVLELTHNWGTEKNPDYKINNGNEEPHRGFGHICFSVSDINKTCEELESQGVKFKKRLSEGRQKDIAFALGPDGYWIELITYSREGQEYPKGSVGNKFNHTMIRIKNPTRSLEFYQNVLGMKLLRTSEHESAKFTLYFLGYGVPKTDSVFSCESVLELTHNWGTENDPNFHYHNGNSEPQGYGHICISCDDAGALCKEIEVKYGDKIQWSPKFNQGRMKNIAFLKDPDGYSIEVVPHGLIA
Method: Measuring glyoxalase I (E.C.4.4.1.5, lactoyl-glutathione lyase Sigma, G-4252) was performed according to the instructions of McLellan and Thornalley (1989). The principle is based on measuring the initial rate of formation of S-D-lactoyl-glutathione from methylglyoxal (Sigma, MO252, 40%) and reduced L-glutathione (Aldrich, G-4251, >99%). The formation of the product is observed using the extinction coefficient e=2.86 mM-1 cm-1 at 240 nm. The measurement was performed in 50 mM sodium phosphate buffer, pH 7.0. For that purpose 2 mM methylglyoxal and 2 mM reduced glutathione were incubated for 2 minutes at 30° C. for the formation of the hemithioacetal. Thereafter 20 μl of a 1 to 1000 dilution of the glyoxalase I (Sigma, G-4252) was added to 1 ml of the measuring reagent to start the reaction.
Glyoxalase activity (IU) corresponds to the amount of enzyme forming 1 μmol of S-D-lactoyl-glutathione/min.
Determination of glyoxalase I activity was performed according to the general protocol as described above. The influence of ethyl pyruvate on enzyme activity was investigated by addition of increasing concentrations of EP (Sigma; no. E4, 780-8; lot. S18972-513) to the measuring reagent.
Determination of glyoxalase I activity was performed according to the general protocol as described above. The influence of compounds of the general formula (I), (II), and (III) on the activity of the enzyme was investigated by addition of increasing concentrations of these compounds to the preparation. The IC50-values were calculated from inhibition curves of each compound.
Determination of glyoxalase I activity was performed according to the general protocol as described above. The influence of 2-oxopropanethioic acid S-ethyl ester on the activity of the enzyme was investigated by addition of increasing concentrations of SE to the preparation for the measurement.
Determination of glyoxalase I activity was performed according to the general protocol as described above. The influence of effectors on the enzymatic activity was investigated by addition of increasing concentrations (0-30 mM) of EP (Sigma; no. E4, 780-8; lot. S18972-513) (triangle), BP (prepared according to the instructions of patent JP 11080089; 98%) (circle) and BL (Fluka, 69819; lot. 443090/1 21503090) (squares) to the measuring reagent (FIG. 3).

[2] = system: NAD-dependent lactate dehydrogenases; test: Interconversion by NAD-dependent lactate dehydrogenases; format: in vitro ADME; conditions: inventors' own measurements
[3] = system: primary human skin fibroblasts; test: Vitality of primary human fibroblasts (dye exclusion count); format: cell-based; conditions: 1-50 mM, serum free medium, 24 hours; FIG. 7
Method: An identical number (10^4 cells per well) of primary human skin fibroblasts were inoculated in 24-well plates (Greiner, no. 662160) and were cultured in DMEM (Gibco; no. 41966-092) in the presence of 10% calf serum (Biochrom, S0113/5), 2 mM L-glutamine (Gibco; no. 25030-024), penicillin/streptomycin (100 units penicillin/ml; 100 μg streptomycin/ml, Gibco; no. 15140/122), 5 mg % ascorbic acid (Serva, no. 14030.02) at 37° C., 5% CO2 and 95% humidity. The primary human fibroblasts were prepared according to the instructions of Birkenmeier et al. (1998). After reaching 50% confluency the medium was by fresh serum free medium. Thereafter the following supplements were added to the cells: preparation 1 (equivalent volume of serum free (SF) medium, blank); preparation 2 (1 mM DEL or 1 mM LEL or 1 mM EP); preparation 3 (5 mM DEL or 5 mM LEL or 5 mM EP), preparation 4 (10 mM DEL or 10 mM LEL or 10 mM EP), preparation 5 (20 mM DEL or 20 mM LEL or 20 mM EP), preparation 6 (50 mM DEL or 50 mM LEL or 50 mM EP). The culture was continued at 37° C., 5% CO2 and 95% humidity for 24 hours. Thereafter the supernatants were removed and 100 μl of a 50% […] solution was added to the wells. After washing the cells with medium the unstained and stained cells were counted under the light optical microscope comprising a coordinate plane. Cells stained blue were assessed as avital, unstained cells as vital. The percentage of unstained cells of the total number of cells corresponds to the vitality of the cells.

[4] = system: biofilms (biofilm-forming microorganisms from pipe water); test: Destruction of biofilms on contaminated silicone surfaces (colony forming units); format: cell-based; conditions: normalized to 1 cm2 inner tube surface
Method: Biofilms were allowed to generate in a silicon tube system according to Gebel et al. (2005). In short, pipe water from a public water distributor was used as the source of biofilm-forming microorganisms. Water flow was at about 20 l per hour through silicon tubes from two commercial suppliers with inner diameters of 4 mm for 30 days at 25° C. After that the tubes were emptied, sealed at both ends and treated on their outer surface with 0.2% peroxoacetic acid for 1 hour. Tubes were then rinsed with sterile water and afterwards cut into pieces of 5 cm length each using a sterile scalpel. Pieces obtained this way were then dipped into solutions which contained the substance to be tested or respective controls. 25 ml of the test solutions were used in closed Falcon tubes (50 ml). […] Tubes were opened over their full length with scissors and the material deposited at the original inner surfaces of the tubes homogenized in 10 ml of saline (9 g NaCl/l water). Dilutions were made (decimal steps to 10^4) and 0.1 ml of these solutions plated onto test agar plates (1 l contained 0.5 g yeast extract, 0.5 g peptone, 0.5 g casein hydrolysate, 0.5 g starch. 0.3 g potassium hydrogen phosphate, 24 mg magnesium sulphate, 0.3 g sodium pyruvate, 15 g agar). Plates were incubated for seven days at 20° C. Colonies which formed were counted on each plate independent of their appearance and color. […] Two dilutions must be consistent in colony numbers, taken into consideration the respective dilution factors. Numbers were normalized to 1 cm2 of the inner tube surface. Each substance was analysed in duplicates. Biofilms were treated with water (control), ethyl pyruvate […] Numbers are given for each of the different silicon tubes used.

## CCCCOC(=O)C(C)=O [Butyl pyruvate]
[1]; 0-30 mM, FIG. 3
  Effect on yeast glyoxalase I compared with EP: the effect of BP is stronger than the effect of EP
[1]
  Influence on the enzymatic activity of yeast glyoxalase I: inhibit the activity of glyoxalase I in a concentration dependent manner

## CCCCOC(=O)C(C)O (stereo not drawn) [Butyl lactate]
[2]
  Transformation by NAD-dependent lactate dehydrogenases: to a lesser degree than ethyl lactate, also be transformed

## CCCCOC(=O)[C@H](C)O [(−)-Butyl L-Lactate]
[1]
  Influence on the enzymatic activity of yeast glyoxalase I: does not influence the reaction of glyoxalase

## CCOC(=O)[C@@H](C)O [(+)-Ethyl D-Lactate]
[3]
  Effect on the vitality of primary human fibroblasts: not toxic over the concentration range investigated

## CCOC(C)=O [Ester control, ethyl acetate, reference compound]
[4]; 25 mM, 30 min, first silicon tube
  Colony forming units derivable from biofilms after treatment: 5.1 × 10^5 colony forming units
[4]; 25 mM, 30 min, second silicon tube
  Colony forming units derivable from biofilms after treatment: 6.5 × 10^5 colony forming units
[4]; 25 mM, 120 min, first silicon tube
  Colony forming units derivable from biofilms after treatment: 7.0 × 10^4 colony forming units
[4]; 25 mM, 120 min, second silicon tube
  Colony forming units derivable from biofilms after treatment: 1.1 × 10^5 colony forming units

## CCOC(=O)[C@H](C)O [(−)-Ethyl L-Lactate]
[3]
  Effect on the vitality of primary human fibroblasts: not toxic over the concentration range investigated

## CCSC(=O)C(C)=O [SE, 2-Oxopropanethioic acid S-ethyl ester]
[1]
  Influence on the enzymatic activity of yeast glyoxalase I: inhibits the reaction of the glyoxalase I of yeast in a concentration dependent manner

## CC(=O)OO [Peroxo acetic acid, peroxoacetic acid, reference compound]
[4]; 0.1%, 30 min, first silicon tube
  Colony forming units derivable from biofilms after treatment: 8.2 × 10^3 colony forming units
[4]; 0.1%, 30 min, second silicon tube
  Colony forming units derivable from biofilms after treatment: 9.3 × 10^3 colony forming units
[4]; 0.1%, 120 min, first silicon tube
  Colony forming units derivable from biofilms after treatment: 3.1 × 10^3 colony forming units
[4]; 0.1%, 120 min, second silicon tube
  Colony forming units derivable from biofilms after treatment: 4.7 × 10^3 colony forming units
